Here are results for 16 molecules from patent US5872139A, “Heterocyclymethylamino derivatives of cyclobutene-3,4-diones” (American Home Products Corporation, priority 1997, dated 1999).

The first experiment has as its system Isolated Rat Bladder Strips. The experiment in a line: Inhibition of contractions in isolated rat bladder strips (KCl-stimulated). It is filed as cell-based, Sprague-Dawley rats. The note with it: 30 μM, 15 mM KCl, read-out: Percent inhibition (I) at 30 μM. The text has this: The smooth muscle relaxing activity of the compounds of this invention was established in accordance with standard pharmaceutically accepted test procedures with representative compounds as follows:
Sprague-Dawley rats (150-200 g) are rendered unconscious by CO2 asphyxiation and then euthanized by cervical dislocation. The bladder is removed into warm (37 deg. C.) physiological salt solution (PSS) of the following composition (mM): NaCl, 118.4; KCl, 4.7; CaCl2, 2.5; […]; NaHCO3, 24.9; KH2 PO4, 1.2; glucose, 11.1; EDTA, 0.023; gassed with […]; pH 7.4. The bladder is opened and then cut into strips 1-2 mm in width and 7-10 mm in length. The strips are subsequently suspended in a 10 mL tissue bath under an initial resting tension of 1.5 g. The strips are held in place by two surgical clips one of which is attached to a fixed hook while the other is attached to an isometric force transducer. […] The carbachol is then washed out and the tissue allowed to relax to its resting level of activity. Following a further 30 min period of recovery an additional 15 mM KCl are introduced into the tissue bath. This increase in KCl concentration results in a large increase in the amplitude of spontaneous contractions (and initiation of contractions in previously quiescent strips) superimposed upon a small increase in basal tone. Following stabilization of this enhanced level of contractile activity, incremental increases in the concentration of test compound or vehicle are introduced into the tissue bath. Contractile activity is measured for each compound or vehicle concentration during the last minute of a 30 minute challenge.
The isometric force developed by the bladder strips is measured using a […] to elicit 50% inhibition of pre-drug contractile activity (IC50 concentration) and is calculated from this concentration-response curve.
On to `CC(C)N(C)c1c(NCc2ccncc2)c(=O)c1=O` [Example 7, 3-(Isopropyl-methyl-amino)-4-[(pyridin-4-ylmethyl)-amino]-cyclobut-3-ene-1,2-dione], for which the inhibition at 30 µM was 27.3 ± 7%.

As for `CCC(C)(C)Nc1c(NCc2cc3cc([N+](=O)[O-])ccc3o2)c(=O)c1=O` [Example 9, 3-(1,1-Dimethyl-propylamino)-4-[(5-nitro-benzofuran-2-ylmethyl)-amino]-cyclobut-3-ene-1,2-dione], the inhibition at 30 µM amounted to 22.2 ± 7.4%.

Turning to `CC(C)(C)Nc1c(NCc2cc3cc([N+](=O)[O-])ccc3o2)c(=O)c1=O` [Example 10, 3-tert-butylamino-4-[(5-nitro-benzofuran-2-ylmethyl)-amino]-cyclobut-3-ene-1,2-dione], the inhibition at 30 µM is 11.5 ± 3.2%. `C[C@@H](Nc1c(NCc2cc3cc(C#N)ccc3o2)c(=O)c1=O)C(C)(C)C` [Example 12, 2-{[3,4-Dioxo-2-(1,2,2-trimethyl-propylamino)-cyclobut-1-enylamino]-methyl}-benzofuran-5-carbonitrile]: the inhibition at 30 µM came out at 5.5 ± 4%.

Regarding `CC(C)(C)Nc1c(NCc2cc3cc(C#N)ccc3o2)c(=O)c1=O` [Example 13, 2-[(2-tert-butylamino-3,4-dioxo-cyclobut-1-enylamino)-methyl]-benzofuran-5-carbonitrile], the inhibition at 30 µM amounted to 19.9 ± 8.5%. The same measure, in the same setting: as for `CC(C)(Cc1ccccc1)Nc1c(NCc2cc3cc(C#N)ccc3o2)c(=O)c1=O` [Example 14, 2-{[2-(1,1-Dimethyl-2-phenyl-ethylamino)-3,4-dioxo-cyclobut-1-enylamino]-methyl}-benzofuran-5-carbonitrile], the figure is 31.9 ± 6.4%.

The same experiment, now with this note: 0.5 h, 30 μM, 15 mM KCl, read-out: Percent contraction (C) at 30 μM.
Consider `C[C@@H](Nc1c(NCc2cc3cc([N+](=O)[O-])ccc3o2)c(=O)c1=O)C(C)(C)C` [Example 8, 3-[(5-nitro-benzofuran-2-ylmethyl)-amino]-4-(1,2,2-trimethylpropylamino)-cyclobut-3-ene-1,2-dione], for which the activity at 30 µM was found to be 8.5 ± 1.4%.

Still in this experiment, the particulars now being: 0.5 h, 15 mM KCl, 30 minute challenge.
As to `CCC(C)(C)Nc1c(NCc2ccncc2)c(=O)c1=O` [Example 1, 3-(1,1-Dimethylpropylamino)-4-[(pyridin-4-ylmethyl)-amino]-cyclobut-3-ene-1,2-dione], it took 420 ± 60 nM to reach half-maximal inhibition (IC50). Same read-out and setting: the result for `CCC(C)(C)Nc1c(NCc2cccnc2)c(=O)c1=O` [Example 2] reads 1250 ± 390 nM; that for `CCC(C)(C)Nc1c(NCc2ccccn2)c(=O)c1=O` [Example 3, 3-(1,1-Dimethylpropylamino)-4-[(pyridin-2-ylmethyl)amino]-cyclobut-3-ene-1,2-dione], 1250 ± 340 nM; that for `CC(C)(C)Nc1c(NCc2ccncc2)c(=O)c1=O` [Example 4, 3-tert-Butylamino-4-[(pyridin-4-ylmethyl)amino]-cyclobut-3-ene-1,2-dione], 3000 ± 200 nM.

With `CC(C)(C)Nc1c(NCc2cccnc2)c(=O)c1=O` [Example 5, 3-tert-Butylamino-4-[(pyridin-3-ylmethyl)amino]-cyclobut-3-ene-1,2-dione], the IC50 came out at 2630 ± 220 nM. `CC(C)(C)Nc1c(NCc2ccccn2)c(=O)c1=O` [Example 6, 3-tert-Butylamino-4-[(pyridin-2-ylmethyl)amino]-cyclobut-3-ene-1,2-dione] yielded an IC50 of 11400 ± 4300 nM. Same read-out and setting: the result for `CCC(C)(C)Nc1c(NCc2cc3cc(C#N)ccc3o2)c(=O)c1=O` [Example 11, 2-{[2-(1,1-Dimethyl-propylamino)-3,4-dioxo-cyclobut-1-enylamino]-methyl}-benzofuran-5-carbonitrile] reads 1560 ± 160 nM.

In the case of `C[C@@H](Nc1c(NCc2cc3cc(C#N)ccc3o2)c(=O)c1=O)C(C)(C)C` [Example 12, 2-{[3,4-Dioxo-2-(1,2,2-trimethyl-propylamino)-cyclobut-1-enylamino]-methyl}-benzofuran-5-carbonitrile], it took 3750 ± 1440 nM to reach half-maximal inhibition (IC50). Consider `CC(Nc1c(NCc2ccncc2)c(=O)c1=O)C(C)(C)C` (stereo not drawn) [Example 15, 3-[(Pyridin-4-ylmethyl)-amino]-4-(1,2,2-trimethyl-propylamino)-cyclobut-3-ene-1,2-dione], for which the IC50 was found to be 2450 ± 990 nM. `CCC(C)(C)Nc1c(NCc2oc3ccc(C#N)cc3c2Cl)c(=O)c1=O` [Example 16, 2-{[2-(1,1-Dimethyl-propylamino)-3,4-dioxo-cyclobut-1-enylamino]-methyl}-3-chloro-benzofuran-5-carbonitrile]: the midpoint of inhibition, the IC50, lay at 1300 ± 630 nM.

The next experiment deals with hypertrophied bladder (detrussor) smooth muscle. The experiment in a line: Inhibition of spontaneous contractions in vivo, hypertrophied rat bladder model (conscious rats, cystometry). More on the design: species or system female Sprague-Dawley rats. The note with it: 10 mg/kg p.o., 3 animals, conscious female rats, second cystometry one hour after dosing. The method, then:
In addition, we tested the ability of the compound of Example 1, as representative of the other compounds of this invention, to inhibit the hyperactivity of hypertrophied bladder (detrussor) smooth muscle in conscious female rats with hypertrophied bladders and thereby alleviate urinary incontinence according to the protocol described by Malmgrem et al., J. Urol. 142:1134, 1989.
Female Sprague-Dawley rats, ranging in weight from 190-210 g are used. Up to 25 animals are prepared each time. After development of bladder hypertrophy 4-8 animals are used per test.
Compounds are dissolved in PEG-200 and administered by gastric gavage or intraveneously in a volume of 5 ml/kg. For primary screening all drugs are administered at the arbitrary dose of 10 mg/kg p.o. to groups of 4 rats.
The animals are anesthetized with halothane. […]
The following urodynamic variables are recorded:
The mean value of each variable is calculated before and after compound administration. For each compound the changes in the variables measured are compared to the values obtained before treatment and expressed as percent inhibition. The data are also subjected to 2-way analysis of variance to determine significant (p<0.05) changes in the variable measured.
With `CCC(C)(C)Nc1c(NCc2ccncc2)c(=O)c1=O` [Example 1, 3-(1,1-Dimethylpropylamino)-4-[(pyridin-4-ylmethyl)-amino]-cyclobut-3-ene-1,2-dione], the “% Red (F): percent reduction in the total number of spontaneous contractions in the hypertrophied rat bladder model” value was -8 ± 4%.
